Assay results: patent US8476298B2 (Exelixis, Inc., priority 2003, dated 2013)
Read-outs that look alike come from different tables or passages of the source.

Key:
[1] = biological target: T1, c-Met (baculovirus expressed human c-Met kinase domain P948-S1343) (Homo sapiens, UniProt P08581); assay: c-Met Luciferase-Coupled Chemiluminescent Kinase assay (LCCA); type: biochemical;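 also: kinase activity read as percent ATP left after reaction, by luciferase-luciferin chemiluminescence, with 1 µM ATP and 1 µM poly-EY substrate, 2 h at ambient temperature, 10-point dose-response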
T1 construct: human c-Met kinase domain P948-S1343; host or cells: baculovirus expression

[2] = biological target: T2, KDR (baculovirus expressed human KDR kinase domain D807-V1356) (Homo sapiens, UniProt P35968); assay: biochemical;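 also: Luciferase-coupled chemiluminescent kinase assay, activity read as percent ATP left after 4 h reaction at ambient temperature, ATP near KM, 10-point dose-response in 384-well plates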
T2 construct: human KDR kinase domain D807-V1356; host or cells: baculovirus expression

[3] = Table 4, inhibition as IC50 class

T2 sequence (P35968 807-1356): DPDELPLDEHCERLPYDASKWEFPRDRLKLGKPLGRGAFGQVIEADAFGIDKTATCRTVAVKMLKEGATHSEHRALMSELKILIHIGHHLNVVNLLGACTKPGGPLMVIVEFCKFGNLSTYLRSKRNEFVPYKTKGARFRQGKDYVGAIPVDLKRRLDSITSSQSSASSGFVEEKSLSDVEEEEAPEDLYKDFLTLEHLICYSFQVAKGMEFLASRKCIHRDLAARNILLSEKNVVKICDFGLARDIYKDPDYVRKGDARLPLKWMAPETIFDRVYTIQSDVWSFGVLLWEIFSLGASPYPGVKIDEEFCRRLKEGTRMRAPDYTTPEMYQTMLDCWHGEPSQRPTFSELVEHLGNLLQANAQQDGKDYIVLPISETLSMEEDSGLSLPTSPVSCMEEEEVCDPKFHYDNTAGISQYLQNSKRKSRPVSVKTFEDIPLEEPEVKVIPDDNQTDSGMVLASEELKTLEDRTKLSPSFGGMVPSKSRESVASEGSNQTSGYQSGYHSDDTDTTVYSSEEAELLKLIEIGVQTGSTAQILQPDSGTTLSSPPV
T1 sequence (P08581 1011-1343 limits assumed): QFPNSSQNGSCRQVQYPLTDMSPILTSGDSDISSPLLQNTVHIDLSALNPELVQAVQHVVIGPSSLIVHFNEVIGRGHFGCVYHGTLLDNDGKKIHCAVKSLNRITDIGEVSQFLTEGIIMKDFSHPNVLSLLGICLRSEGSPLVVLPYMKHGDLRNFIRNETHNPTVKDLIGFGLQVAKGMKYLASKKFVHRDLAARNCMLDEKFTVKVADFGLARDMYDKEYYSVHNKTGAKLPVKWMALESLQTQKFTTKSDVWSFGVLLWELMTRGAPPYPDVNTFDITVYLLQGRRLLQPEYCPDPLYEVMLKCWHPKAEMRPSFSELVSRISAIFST

IC50 [1]	IC50 [2]	IC50 [1, 3]	IC50 [2, 3]	Molecule
50 to 500 nM				COc1cc2nccc(Oc3ccc(N4CCN(C(=O)Cc5ccccc5)C4=O)cc3F)c2cc1OC [Entry 6]
500 to 5000 nM				COc1cc2nccc(Oc3ccc(S(=O)(=O)N(C)CCCc4ccccc4)cc3F)c2cc1OC [Entry 25]
500 to 5000 nM				COc1cc2nccc(Oc3cc4sc(NC(=O)CCc5ccccc5)nc4cc3F)c2cc1OC [Entry 53]
500 to 5000 nM				COc1cc2nccc(Oc3ccc(NC(=O)C(=O)N[C@H]4CCc5ccccc5C4)cc3F)c2cc1OC [Entry 62]
500 to 5000 nM				COc1cc2nccc(Oc3ccc(N(Cc4ccccc4)S(=O)(=O)NCc4ccccc4)cc3F)c2cc1OC [Entry 66]
500 to 5000 nM				COc1cc2nccc(Oc3ncc(NC(=O)C(=O)NCCc4ccccc4)cc3Cl)c2cc1OC [Entry 69]
500 to 5000 nM				COc1cc2nccc(Oc3ncc(NC(=O)CC(=O)Cc4ccccc4)cc3Cl)c2cc1OC [Entry 79]
50 to 500 nM				COc1cc2nccc(Oc3cc4sc(NCCOc5ccccc5)nc4cc3F)c2cc1OC [Entry 81]
500 to 5000 nM				COc1cc2nccc(Oc3cc4sc(N(C)CCc5ccccc5)nc4cc3F)c2cc1OC [Entry 83]
500 to 5000 nM				COc1cc2nccc(Oc3cc4sc(NCCN5CCCC5)nc4cc3F)c2cc1OC [Entry 84]
500 to 5000 nM				COc1cc2nccc(Oc3cc4sc(NCc5cccc(C(F)(F)F)c5)nc4cc3F)c2cc1OC [Entry 85]
500 to 5000 nM				COc1cc2nccc(Oc3cc4sc(NCCc5cccc(C(F)(F)F)c5)nc4cc3F)c2cc1OC [Entry 86]
500 to 5000 nM				COc1cc2nccc(Oc3ncc(NC(=O)CC(=O)Nc4cccc(C(F)(F)F)c4)cc3Cl)c2cc1OC [Entry 87]
500 to 5000 nM				COc1cc2nccc(Oc3ncc(NC(=O)CN(Cc4ccccc4)C(=O)OC(C)(C)C)cc3Cl)c2cc1OC [Entry 92]
500 to 5000 nM				COc1cc2nccc(Oc3ncc(NC(=O)CNCc4ccccc4)cc3Cl)c2cc1OC [Entry 93]
500 to 5000 nM				COc1cc2nccc(Oc3ccc(NC(=O)CN(C)CCc4cccc(C(F)(F)F)c4)cc3F)c2cc1OC [Entry 100]
50 to 500 nM				COc1cc2nccc(Oc3ncc(NC(=O)CC(=O)Nc4ccc(Cl)cc4)cc3Cl)c2cc1OC [Entry 107]
50 to 500 nM	50 to 500 nM			CO/N=C(\C)C(=O)Nc1ccc(Oc2ccnc3cc(OC)c(OC)cc23)cc1 [Example 108, (2E)-N-(4-{[6,7-bis(methyloxy)quinolin-4-yl]oxy}phenyl)-2-[(methyloxy)imino] propanamide]
50 to 500 nM	< 50 nM			CCO/N=C(\C)C(=O)Nc1ccc(Oc2ccnc3cc(OC)c(OC)cc23)cc1 [Example 109, (2E)-N-(4-{[6,7-bis(methyloxy)quinolin-4-yl]oxy}phenyl)-2-[(ethyloxy)imino] propanamide]
50 to 500 nM	50 to 500 nM			COc1cc2nccc(Oc3ccc(NC(=O)/C(C)=N/OCc4ccccc4)cc3)c2cc1OC [Example 110, (2E)-N-(4-{[6,7-bis(methyloxy)quinolin-4-yl]oxy}phenyl)-2-{[(phenylmethyl)oxy]imino} propanamide]
500 to 5000 nM	500 to 5000 nM			COc1cc2nccc(Oc3ccc(NC(=O)[C@@H]4CCCN4Cc4ccccc4)cc3)c2cc1OC [Example 111, N-(4-{[6,7-bis(methyloxy)quinolin-4-yl]oxy}phenyl)-1-(phenylmethyl)prolinamide]

IC50 [1]	IC50 [2]	IC50 [1, 3]	IC50 [2, 3]	Molecule
500 to 5000 nM	500 to 5000 nM			COc1cc2nccc(Oc3ccc(N4CC(Cc5ccccc5)NC4=O)cc3)c2cc1OC (stereo not drawn) [Example 113, 1-(4-{[6,7-bis(methyloxy)quinolin-4-yl]oxy}phenyl)-4-(phenylmethyl)imidazolidin-2-one]
500 to 5000 nM	50 to 500 nM			COc1cc2nccc(Oc3ccc(NC4=NC(Cc5ccccc5)CO4)cc3)c2cc1OC (stereo not drawn) [Example 114, N-(4-{[6,7-bis(methyloxy)quinolin-4-yl]oxy}phenyl)-4-(phenylmethyl)-4,5-dihydro-1,3-oxazol-2-amine]
500 to 5000 nM	500 to 5000 nM			COc1cc2nccc(Oc3ccc(N4CCN(Cc5ccccc5)CC4)cc3)c2cc1OC [Example 115, 6,7-bis(methyloxy)-4-({4-[4-(phenylmethyl)piperazin-1-yl]phenyl}oxy)quinoline]
500 to 5000 nM	500 to 5000 nM			COc1cc2nccc(Oc3ccc(N4CCN(Cc5ccccc5)CC4=O)cc3)c2cc1OC [Example 116, 1-(4-{[6,7-bis(methyloxy)quinolin-4-yl]oxy}phenyl)-4-(phenylmethyl)piperazin-2-one]
500 to 5000 nM	500 to 5000 nM			COc1cc2nccc(Oc3ccc(NC(=O)C(C)NCc4ccccc4)cc3)c2cc1OC (stereo not drawn) [Example 117, N1-(4-{[6,7-bis(methyloxy)quinolin-4-yl]oxy}phenyl)-N2-(phenylmethy)alaninamide]
500 to 5000 nM	500 to 5000 nM			COc1cc2nccc(Oc3ccc(NC(=O)C(C)N(C)Cc4ccccc4)cc3)c2cc1OC (stereo not drawn) [Example 118, N1-(4-{[6,7-bis(methyloxy)quinolin-4-yl]oxy}phenyl)-N2-methyl-N2-(phenylmethyl) alaninamide]
500 to 5000 nM	500 to 5000 nM			COc1cc2nccc(Oc3ccc(NC(=O)C(CC(C)C)N(C)Cc4ccccc4)cc3)c2cc1OC (stereo not drawn) [Example 120, N1-(4-{[6,7-bis(methyloxy)quinolin-4-yl]oxy}phenyl)-N2-methyl-N2-(phenylmethyl) leucinamide]
500 to 5000 nM	500 to 5000 nM			COc1cc2nccc(Oc3ccc(NC(=O)[C@@H](NCc4ccccc4)C(C)C)cc3)c2cc1OC [Example 121, N1-(4-{[6,7-bis(methyloxy)quinolin-4-yl]oxy}phenyl)-N2-(phenylmethyl)valinamide]
		< 50 nM	< 50 nM	COc1cc2c(Oc3ccc(NC(=O)C(=O)NCCc4ccccc4)cc3F)ccnc2cc1OCC1CNC1 [Example 249, N-(4-{[7-[(azetidin-3-ylmethyl)oxy]-6-(methyloxy)quinolin-4-yl]oxy}-3-fluorophenyl)-N′-(2-phenylethyl)ethanediamide]
		< 50 nM	500 to 5000 nM	COc1cc2nccc(Oc3ncc(NC(=O)CC(=O)Nc4ccc(F)cc4F)cc3Cl)c2cc1OC [Example 252, N-(6-{[6,7-bis(methyloxy)quinolin-4-yl]oxy}-5-chloropyridin-3-yl)-N′-(2,4-difluorophenyl)propanediamide]
		50 to 500 nM	500 to 5000 nM	COc1cc2nccc(Oc3ncc(NC(=O)CC(=O)N(C)c4ccc(F)cc4)cc3Cl)c2cc1OC [Example 253, N′-(6-{[6,7-bis(methyloxy)quinolin-4-yl]oxy}-5-chloropyridin-3-yl)-N-(4-fluorophenyl)-N-methylpropanediamide]
		< 50 nM	< 50 nM	COc1cc2c(Oc3ccc(NC(=O)C(=O)NCc4ccc(Cl)cc4)cc3F)ccnc2cc1OCC1CCNCC1 [Example 268, N-[(4-chlorophenyl)methyl]-N′-[3-fluoro-4-({6-(methyloxy)-7-[(piperidin-4-ylmethyl)oxy]quinolin-4-yl}oxy)phenyl]ethanediamide]
50 to 500 nM	500 to 5000 nM			COc1cc2nccc(Oc3ncc(NC(=O)CC(=O)Nc4cccc(F)c4)cc3Cl)c2cc1OC [Example 290, N-(6-{[6,7-bis(methyloxy)quinolin-4-yl]oxy}-5-chloropyridin-3-yl)-N′-(3-fluorophenyl)propanediamide]
500 to 5000 nM	500 to 5000 nM			COc1cc2nccc(Oc3ncc(NC(=O)C4(C(=O)NCCc5ccccc5)CC4)cc3Cl)c2cc1OC [Example 302, N-(6-{[6,7-bis(methyloxy)quinolin-4-yl]oxy}-5-chloropyridin-3-yl)-N′-(2-phenylethyl)cyclopropane-1,1-dicarboxamide]
500 to 5000 nM	500 to 5000 nM			COc1cc2nc(SC)cc(Oc3ccc(NC(=O)C4(C(=O)Nc5ccc(F)cc5)CC4)cc3F)c2cc1OC [Example 338, N-(4-{[6,7-bis(methyloxy)-2-(methylthio)quinolin-4-yl]oxy}-3-fluorophenyl)-N′-(4-fluorophenyl)cyclopropane-1,1-dicarboxamide]
500 to 5000 nM	500 to 5000 nM			COc1cc2nc(C)nc(Oc3ccc(NC(=O)C4(C(=O)Nc5ccc(F)cc5)CC4)cc3)c2cc1OC [Example 339, N-(4-fluorophenyl)-N′-(4-{[2-methyl-6,7-bis(methyloxy)quinazolin-4-yl]oxy}phenyl)cyclopropane-1,1-dicarboxamide]
500 to 5000 nM	500 to 5000 nM			COc1cc2nc(N)cc(Oc3ccc(NC(=O)C4(C(=O)Nc5ccc(F)cc5)CC4)cc3F)c2cc1OC [Example 340, N-(4-{[2-amino-6,7-bis(methyloxy)quinolin-4-yl]oxy}-3-fluorophenyl)-N′-(4-fluorophenyl)cyclopropane-1,1-dicarboxamide]
500 to 5000 nM	500 to 5000 nM			CNc1cc(Oc2ccc(NC(=O)C3(C(=O)Nc4ccc(F)cc4)CC3)cc2F)c2cc(OC)c(OC)cc2n1 [Example 341, N-(3-fluoro-4-{[2-(methylamino)-6,7-bis(methyloxy)quinolin-4-yl]oxy}phenyl)-N′-(4-fluorophenyl)cyclopropane-1,1-dicarboxamide]
< 50 nM	< 50 nM			COc1cc2c(Oc3ccc(NC(=O)[C@]4(C(=O)Nc5ccc(F)cc5)C[C@H]4C)cc3F)ncnc2cc1OCCCN1CCOCC1 [Example 347, (1R,2R)-N-[3-fluoro-4-({6-(methyloxy)-7-[(3-morpholin-4-ylpropyl)oxy]quinazolin-4-yl}oxy)phenyl]-N′-(4-fluorophenyl)-2-methylcyclopropane-1,1-dicarboxamide]
500 to 5000 nM				N-{3-fluoro-4-[(7-(methyloxy)-6- {[(1-methylpiperidin-4- yl)methyl]oxy}quinazolin-4- yl)oxy]phenyl}-N′-(4- fluorophenyl)cyclopropane-1,1- dicarboxamide [Entry 31]

Molecule	IC50 [1]	IC50 [2]	IC50 [1, 3]	IC50 [2, 3]
COc1cc2nccc(Oc3ccc(NC(=O)[C@H](CC(C)C)NCc4ccccc4)cc3)c2cc1OC [Example 119, N1-(4-{[6,7-bis(methyloxy)quinolin-4-yl]oxy}phenyl)-N2-(phenylmethyl)leucinamide]	500 to 5000 nM	500 to 5000 nM		
